According to US9409952B2, “Peptide-compound cyclization method” (Chugai Seiyaku Kabushiki Kaisha, priority 2011, dated 2016):
Starred links: 1 amine or outer side, 2 acyl side, 3 side chain; linkers in the order of their positions; H or OH if unused. Positions of bridges follow the written chain, without caps; N, C: chain ends. Non-standard residues stand in square brackets, D forms with d. Residues, ends and D or L forms follow the SMILES beside them. *: point of attachment. Phe(4-(CH2)5CO) = O=C([C@H](Cc1ccc(CCCCCC(=O)[*:3])cc1)N[*:1])[*:2]; Phe(3-(CH2)4CO) = O=C([C@H](Cc1cccc(CCCCC(=O)[*:3])c1)N[*:1])[*:2]; NMeF = CN[C@@H](Cc1ccccc1)C(=O)O; NMeI = CC[C@H](C)[C@H](NC)C(=O)O; NMeβAla = CN(CCC(=O)[*:2])[*:1]; NMeL = CN[C@@H](CC(C)C)C(=O)O; NMeV = CN[C@H](C(=O)O)C(C)C; NMeA = CN[C@@H](C)C(=O)O; Piperidide = C1CCN(*)CC1; NPrGly = CCCNCC(=O)O; Sar = CNCC(=O)O

Assay: Metabolic stability in human hepatic microsome
Type: in vitro ADME
Details: microsomes, pH 7.4; human hepatic microsome, NADPH(+); read-out: CL NADPH(+)
With `C=C1CCC(=O)N[C@@H](CC(C)C)C(=O)N(C)[C@@H](CC(C)C)C(=O)N(C)[C@@H](Cc2ccccc2)C(=O)N[C@@H](C)C(=O)N(C)[C@@H](Cc2ccccc2)C(=O)N(C)[C@@H]([C@@H](C)CC)C(=O)N[C@@H]([C@@H](C)O)C(=O)N(C)CC(=O)N(C)[C@@H](CC(C)C)C(=O)N[C@H](C(=O)N2CCCCC2)Cc2ccc1cc2` [DP-854] the microsomal CLint at 1 uM was 252 µL/min/mg. In the case of `C=C1CCC(=O)N[C@@H](CC(C)C)C(=O)N(C)[C@@H](CC(C)C)C(=O)N(C)[C@@H](Cc2ccccc2)C(=O)N[C@@H](C)C(=O)N(C)[C@@H](Cc2ccccc2)C(=O)N(C)[C@@H]([C@@H](C)CC)C(=O)N[C@@H]([C@@H](C)O)C(=O)N(C)CC(=O)N(C)[C@@H](CC(C)C)C(=O)N[C@H](C(=O)N2CCCCC2)Cc2cccc1c2` [DP-855], the microsomal CLint at 1 uM is reported as 210 µL/min/mg. For `CC[C@H](C)[C@H]1C(=O)N[C@@H]([C@@H](C)O)C(=O)N(C)CC(=O)N(C)[C@@H](CC(C)C)C(=O)N[C@H](C(=O)N2CCCCC2)Cc2cccc(c2)CCCCC(=O)N[C@@H](CC(C)C)C(=O)N(C)[C@@H](CC(C)C)C(=O)N(C)[C@@H](Cc2ccccc2)C(=O)N[C@@H](C)C(=O)N(C)[C@@H](Cc2ccccc2)C(=O)N1C` [DP-857] (L[NMeL][NMeF]A[NMeF][NMeI]T[Sar][NMeL][Phe(3-(CH2)4CO)]-Piperidide; lactam N-10), the microsomal CLint at 1 uM was 284 µL/min/mg. For `CC(C)C[C@H]1C(=O)N(C)[C@@H](CC(C)C)C(=O)N[C@@H](C)C(=O)N(C)[C@@H](CC(C)C)C(=O)N(C)[C@@H](Cc2ccccc2)C(=O)N(C)[C@@H](Cc2ccccc2)C(=O)N[C@@H]([C@@H](C)O)C(=O)N(C)[C@@H](C)C(=O)N(C)[C@@H](CC(C)C)C(=O)N[C@H](C(=O)N2CCCCC2)Cc2cccc(c2)CCCCC(=O)N1C` [DP-859] ([NMeL][NMeL]A[NMeL][NMeF][NMeF]T[NMeA][NMeL][Phe(3-(CH2)4CO)]-Piperidide; lactam N-10), the microsomal CLint at 1 uM was 87 µL/min/mg. Work on `CC[C@H](C)[C@H]1C(=O)N(C)[C@@H](C)C(=O)N(C)[C@@H](Cc2ccccc2)C(=O)N[C@@H]([C@@H](C)O)C(=O)N(C)[C@@H](Cc2ccccc2)C(=O)N(C)[C@@H](CC(C)C)C(=O)N2CCC[C@H]2C(=O)N[C@H](C(=O)N2CCCCC2)Cc2cccc(c2)CCCCC(=O)NCC(=O)N(C)[C@@H](CC(C)C)C(=O)N1C` [DP-860] (G[NMeL][NMeI][NMeA][NMeF]T[NMeF][NMeL]P[Phe(3-(CH2)4CO)]-Piperidide; lactam N-10) yielded a microsomal CLint at 1 uM of 322 µL/min/mg. `C=C1CCC(=O)N[C@@H](CC(C)C)C(=O)N2CCC[C@H]2C(=O)N[C@@H]([C@@H](C)O)C(=O)N(C)CC(=O)N[C@@H](Cc2ccccc2)C(=O)N(C)[C@@H](C(C)C)C(=O)N(C)[C@@H](C)C(=O)N[C@@H](CC(C)C)C(=O)N(C)[C@@H](CC(C)C)C(=O)N[C@H](C(=O)N2CCCCC2)Cc2cccc1c2` [DP-866] gave a microsomal CLint at 1 uM of 211 µL/min/mg. Compound `CCCN1CC(=O)N(C)[C@@H](Cc2ccccc2)C(=O)N[C@@H](C)C(=O)N(C)[C@@H](Cc2ccccc2)C(=O)N(C)[C@@H](CC(C)C)C(=O)N(C)[C@@H]([C@@H](C)CC)C(=O)N(C)[C@@H](CC(C)C)C(=O)N[C@H](C(=O)N2CCCCC2)Cc2cccc(c2)CCCCC(=O)N[C@@H](CC(C)C)C(=O)N[C@@H]([C@@H](C)O)C1=O` [DP-867] (LT[NPrGly][NMeF]A[NMeF][NMeL][NMeI][NMeL][Phe(3-(CH2)4CO)]-Piperidide; lactam N-10) has a microsomal CLint at 1 uM of 211 µL/min/mg. In the case of `C=C1CCC(=O)N[C@@H](CC(C)C)C(=O)N2CCC[C@H]2C(=O)N(C)[C@@H](C(C)C)C(=O)N[C@@H](Cc2ccccc2)C(=O)N(C)[C@@H](Cc2ccccc2)C(=O)N(C)[C@@H](CC(C)C)C(=O)N[C@@H](C)C(=O)N(C)[C@@H]([C@@H](C)CC)C(=O)N[C@H](C(=O)N2CCCCC2)Cc2cccc1c2` [DP-870], the microsomal CLint at 1 uM is reported as 474 µL/min/mg. `C=C1CCC(=O)N[C@@H](C(C)C)C(=O)N(C)[C@@H](C)C(=O)N(C)[C@@H](CC(C)C)C(=O)N[C@@H](CC(C)C)C(=O)N[C@@H](Cc2ccccc2)C(=O)N(C)[C@@H](Cc2ccccc2)C(=O)N[C@@H]([C@@H](C)CC)C(=O)N2CCC[C@H]2C(=O)N[C@@H]([C@@H](C)O)C(=O)N(C)[C@@H](CC(C)C)C(=O)N[C@H](C(=O)N2CCCCC2)Cc2cccc1c2` [DP-884] gave a microsomal CLint at 1 uM of 64 µL/min/mg. For `C=C1CCC(=O)N[C@@H](CC(C)C)C(=O)N[C@@H](C(C)C)C(=O)N(C)[C@@H](CC(C)C)C(=O)N[C@@H](Cc2ccccc2)C(=O)N(C)[C@@H](Cc2ccccc2)C(=O)N[C@@H]([C@@H](C)CC)C(=O)N(C)[C@@H](C)C(=O)N[C@@H](CC(C)C)C(=O)N[C@@H]([C@@H](C)O)C(=O)N[C@H](C(=O)N2CCCCC2)Cc2cccc1c2` [DP-890], the microsomal CLint at 1 uM was 47 µL/min/mg. In the case of `CC[C@H](C)[C@@H]1NC(=O)[C@H](Cc2ccccc2)N(C)C(=O)[C@H](Cc2ccccc2)NC(=O)[C@H](CC(C)C)N(C)C(=O)[C@H](C(C)C)NC(=O)[C@H](CC(C)C)NC(=O)[C@H](C)N(C)C(=O)CNC(=O)CCCCCc2ccc(cc2)C[C@@H](C(=O)N2CCCCC2)NC(=O)[C@H]([C@@H](C)O)NC(=O)[C@H](CC(C)C)NC(=O)[C@H](C)N(C)C1=O` [DP-891] (G[NMeA]LV[NMeL]F[NMeF]I[NMeA]LT[Phe(4-(CH2)5CO)]-Piperidide; lactam N-12), the microsomal CLint at 1 uM is reported as 100 µL/min/mg. `CC[C@H](C)[C@@H]1NC(=O)[C@H](Cc2ccccc2)N(C)C(=O)[C@H](Cc2ccccc2)NC(=O)[C@H](CC(C)C)N(C)C(=O)[C@H](C(C)C)NC(=O)[C@H](CC(C)C)NC(=O)CCCCCc2ccc(cc2)C[C@@H](C(=O)N2CCCCC2)NC(=O)[C@H]([C@@H](C)O)NC(=O)[C@H](CC(C)C)NC(=O)[C@H](C)N(C)C1=O` [DP-892] (LV[NMeL]F[NMeF]I[NMeA]LT[Phe(4-(CH2)5CO)]-Piperidide; lactam N-10) gave a microsomal CLint at 1 uM of 57 µL/min/mg. Work on `CC[C@H](C)[C@H]1C(=O)N[C@@H](Cc2ccccc2)C(=O)N(C)[C@@H](Cc2ccccc2)C(=O)N[C@@H]([C@@H](C)O)C(=O)N2CCC[C@H]2C(=O)N[C@@H](CC(C)C)C(=O)N[C@H](C(=O)N2CCCCC2)Cc2ccc(cc2)CCCCCC(=O)N[C@@H](C(C)C)C(=O)N(C)CC(=O)N[C@@H](CC(C)C)C(=O)N(C)[C@@H](CC(C)C)C(=O)N[C@@H](C)C(=O)N1C` [DP-895] (V[Sar]L[NMeL]A[NMeI]F[NMeF]TPL[Phe(4-(CH2)5CO)]-Piperidide; lactam N-12) yielded a microsomal CLint at 1 uM of 54 µL/min/mg. `C=C1CCC(=O)N[C@@H](CC(C)C)C(=O)N[C@@H](Cc2ccccc2)C(=O)N[C@@H]([C@@H](C)O)C(=O)N[C@@H](CC(C)C)C(=O)N(C)[C@@H](C)C(=O)N[C@@H](Cc2ccccc2)C(=O)NCC(=O)N[C@@H](C(C)C)C(=O)N[C@@H](CC(C)C)C(=O)N[C@@H](C)C(=O)N(C)[C@@H](CC(C)C)C(=O)N[C@H](C(=O)N2CCCCC2)Cc2ccc1cc2` [DP-898] gave a microsomal CLint at 1 uM of 21 µL/min/mg. `C=C1CCC(=O)N[C@@H](C(C)C)C(=O)N(C)[C@@H](CC(C)C)C(=O)N(C)CC(=O)N(C)[C@@H](CC(C)C)C(=O)N(C)[C@@H]([C@@H](C)CC)C(=O)N[C@@H](C)C(=O)N(C)[C@@H](Cc2ccccc2)C(=O)N(C)[C@@H](Cc2ccccc2)C(=O)N[C@@H]([C@@H](C)O)C(=O)N(C)[C@@H](CC(C)C)C(=O)N2CCC[C@H]2C(=O)N[C@H](C(=O)N2CCCCC2)Cc2cccc1c2` [DP-899] gave a microsomal CLint at 1 uM of 32 µL/min/mg. In the case of `CC[C@H](C)[C@@H]1NC(=O)[C@H](Cc2ccccc2)N(C)C(=O)[C@H](CC(C)C)N(C)C(=O)[C@H](CC(C)C)NC(=O)[C@H](C)NC(=O)[C@H](C(C)C)N(C)C(=O)CNC(=O)CCCCCc2ccc(cc2)C[C@@H](C(=O)N2CCCCC2)NC(=O)[C@H](CC(C)C)N(C)C(=O)[C@H]([C@@H](C)O)NC(=O)[C@@H]2CCCN2C(=O)[C@H](Cc2ccccc2)NC1=O` [DP-902] (G[NMeV]AL[NMeL][NMeF]IFPT[NMeL][Phe(4-(CH2)5CO)]-Piperidide; lactam N-12), the microsomal CLint at 1 uM is reported as 121 µL/min/mg. In the case of `CC[C@H](C)[C@H](NC(=O)[C@H](CC(C)C)N(C)C(=O)[C@H](Cc1ccccc1)N(C)C(=O)[C@@H]1CC(=O)N(C)[C@@H](C)C(=O)N[C@@H](C(C)C)C(=O)N[C@@H](C)C(=O)N[C@@H](CC(C)C)C(=O)N(C)[C@@H](Cc2ccccc2)C(=O)N[C@@H](CC(C)C)C(=O)N[C@@H]([C@@H](C)O)C(=O)N1)C(=O)N1CCCCC1` [DP-932] ([NMeA]VAL[NMeF]LTD[NMeF][NMeL]I-Piperidide; lactam N-8), the microsomal CLint at 1 uM is reported as 108 µL/min/mg. `CC[C@H](C)[C@H](NC(=O)[C@H](CC(C)C)NC(=O)[C@H](CC(C)C)N(C)C(=O)[C@@H]1CC(=O)N[C@H](C(C)C)C(=O)N[C@@H](CC(C)C)C(=O)N(C)[C@@H](CC(C)C)C(=O)N[C@@H]([C@@H](C)O)C(=O)N[C@@H](C(C)C)C(=O)N(C)[C@@H](CC(C)C)C(=O)N(C)[C@@H](Cc2ccccc2)C(=O)N1)C(=O)N1CCCCC1` [DP-933] ([dV]L[NMeL]TV[NMeL][NMeF]D[NMeL]LI-Piperidide; lactam N-8) showed a microsomal CLint at 1 uM of 43 µL/min/mg. With `CC[C@H](C)[C@H](NC(=O)[C@H](CC(C)C)N(C)C(=O)[C@H](CC(C)C)NC(=O)[C@@H]1CC(=O)N[C@@H](C)C(=O)N(C)[C@@H](Cc2ccccc2)C(=O)N(C)[C@@H](CC(C)C)C(=O)N(C)[C@@H](CC(C)C)C(=O)N[C@@H](Cc2ccccc2)C(=O)N[C@@H]([C@@H](C)O)C(=O)N[C@@H](C(C)C)C(=O)N1)C(=O)N1CCCCC1` [DP-934] (A[NMeF][NMeL][NMeL]FTVDL[NMeL]I-Piperidide; lactam N-8) the microsomal CLint at 1 uM was 143 µL/min/mg. For `CC[C@H](C)[C@H](NC(=O)[C@H](Cc1ccccc1)N(C)C(=O)[C@H](Cc1ccccc1)N(C)C(=O)[C@@H]1CC(=O)N(C)CCC(=O)N(C)[C@@H](CC(C)C)C(=O)N(C)[C@@H](Cc2ccccc2)C(=O)N[C@@H](CC(C)C)C(=O)N(C)[C@@H](CC(C)C)C(=O)N(C)[C@@H](CC(C)C)C(=O)N[C@@H]([C@@H](C)O)C(=O)N(C)[C@@H](C)C(=O)N1)C(=O)N1CCCCC1` [DP-960] ([NMeβAla][NMeL][NMeF]L[NMeL][NMeL]T[NMeA]D[NMeF][NMeF]I-Piperidide; lactam N-9), the microsomal CLint at 1 uM was 36 µL/min/mg.
